Source: ChEMBL document CHEMBL1201862, “PubChem BioAssay data set” (2004)
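Tested at 5 concentrations; 48 h exposure; 96-well plates; endpoints linearly interpolated, else capped at highest concentration. GI50 is the concentration that inhibits growth by half.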 The source made the active and inactive calls. Cut-off read from the data, not from the text of the source: active = GI50 up to about 1.1 µM and inactive = higher.

Assays:
Experiment in all cases: NCI anticancer screen, dose series, 48 h
MOLT-4 = test system: MOLT-4
NCI-H522 = test system: NCI-H522
OVCAR-3 = test system: OVCAR-3
786-0 = test system: 786-0
M19-MEL = test system: M19-MEL
SF-539 = test system: SF-539
SK-OV-3 = test system: SK-OV-3
DMS-273 = test system: DMS-273
SK-MEL-28 = test system: SK-MEL-28
HCT-15 = test system: HCT-15
HOP-62 = test system: HOP-62
K562 = test system: K562
CCRF-CEM = test system: CCRF-CEM
SF-268 = test system: SF-268
HL-60 = test system: HL-60
LOX IMVI = test system: LOX IMVI
DLD-1 = test system: DLD-1
EKVX = test system: EKVX
UACC-257 = test system: UACC-257
NCI-H23 = test system: NCI-H23
SF-295 = test system: SF-295
KM-20L2 = test system: KM-20L2
XF498 = test system: XF498
SNB-78 = test system: SNB-78
A549 = test system: A549
HCT-116 = test system: HCT-116
CAKI-1 = test system: CAKI-1
UACC-62 = test system: UACC-62
OVCAR-5 = test system: OVCAR-5
U-251 = test system: U-251
SW-620 = test system: SW-620
SK-MEL-5 = test system: SK-MEL-5
KM12 = test system: KM12
SNB-75 = test system: SNB-75
SK-MEL-2 = test system: SK-MEL-2
IGROV-1 = test system: IGROV-1
LXFL 529 = test system: LXFL 529
HOP-18 = test system: HOP-18
SN12C = test system: SN12C
ACHN = test system: ACHN
DMS-114 = test system: DMS-114
SR = test system: SR
M14 = test system: M14
RXF 393 = test system: RXF 393
HOP-92 = test system: HOP-92
SNB-19 = test system: SNB-19
HCC 2998 = test system: HCC 2998
TK-10 = test system: TK-10
UO-31 = test system: UO-31
NCI-H226 = test system: NCI-H226
NCI-H460 = test system: NCI-H460
COLO 205 = test system: COLO 205
HT-29 = test system: HT-29
A498 = test system: A498
OVCAR-8 = test system: OVCAR-8
Malme-3M = test system: Malme-3M
OVCAR-4 = test system: OVCAR-4
RPMI-8226 = test system: RPMI-8226
RXF 631 = test system: RXF 631

Structure (SMILES): CCOC(=O)c1cccnc1C(OC(C)=O)OC(C)=O
- GI50 (MOLT-4): > 100 µM (inactive)
- GI50 (NCI-H522): > 100 µM (inactive)
- GI50 (OVCAR-3): > 100 µM (inactive)
- GI50 (786-0): > 100 µM (inactive)
- GI50 (M19-MEL): > 100 µM (inactive)
- GI50 (SF-539): > 100 µM (inactive)
- GI50 (SK-OV-3): > 100 µM (inactive)
- GI50 (DMS-273): > 100 µM (inactive)
- GI50 (SK-MEL-28): > 100 µM (inactive)
- GI50 (HCT-15): > 100 µM
- GI50 (HOP-62): > 100 µM (inactive)
- GI50 (K562): > 100 µM (inactive)
- GI50 (CCRF-CEM): > 100 µM (inactive)
- GI50 (SF-268): > 100 µM (inactive)
- GI50 (HL-60): 49.9 µM (inactive)
- GI50 (LOX IMVI): 70 µM (inactive)
- GI50 (DLD-1): > 100 µM (inactive)
- GI50 (EKVX): > 100 µM (inactive)
- GI50 (UACC-257): > 100 µM (inactive)
- GI50 (NCI-H23): > 100 µM (inactive)
- GI50 (SF-295): 83.4 µM (inactive)
- GI50 (KM-20L2): > 100 µM (inactive)
- GI50 (XF498): > 100 µM (inactive)
- GI50 (SNB-78): > 100 µM (inactive)
- GI50 (A549): > 100 µM (inactive)
- GI50 (HCT-116): > 100 µM (inactive)
- GI50 (CAKI-1): > 100 µM (inactive)
- GI50 (UACC-62): > 100 µM (inactive)
- GI50 (OVCAR-5): > 100 µM (inactive)
- GI50 (U-251): > 100 µM (inactive)
- GI50 (SW-620): > 100 µM (inactive)
- GI50 (SK-MEL-5): > 100 µM (inactive)
- GI50 (KM12): > 100 µM (inactive)
- GI50 (SNB-75): > 100 µM (inactive)
- GI50 (SK-MEL-2): > 100 µM (inactive)
- GI50 (IGROV-1): > 100 µM (inactive)
- GI50 (LXFL 529): > 100 µM (inactive)
- GI50 (HOP-18): > 100 µM (inactive)
- GI50 (SN12C): > 100 µM (inactive)
- GI50 (ACHN): 74.8 µM (inactive)
- GI50 (DMS-114): > 100 µM (inactive)
- GI50 (SR): > 100 µM (inactive)
- GI50 (M14): > 100 µM (inactive)
- GI50 (RXF 393): > 100 µM (inactive)
- GI50 (HOP-92): > 100 µM (inactive)
- GI50 (SNB-19): > 100 µM (inactive)
- GI50 (HCC 2998): > 100 µM (inactive)
- GI50 (TK-10): > 100 µM (inactive)
- GI50 (UO-31): > 100 µM (inactive)
- GI50 (NCI-H226): > 100 µM (inactive)
- GI50 (NCI-H460): > 100 µM (inactive)
- GI50 (COLO 205): > 100 µM (inactive)
- GI50 (HT-29): > 100 µM (inactive)
- GI50 (A498): > 100 µM (inactive)
- GI50 (OVCAR-8): > 100 µM (inactive)
- GI50 (Malme-3M): > 100 µM (inactive)
- GI50 (OVCAR-4): > 100 µM (inactive)

Structure (SMILES): CC(=O)OCC(=O)[C@@]1(O)CC[C@H]2[C@@H]3C[C@H](C)C4=CC(=O)C=C[C@]4(C)[C@@]3(F)[C@@H](O)C[C@@]21C
- GI50 (MOLT-4): 68.7 µM (inactive)
- GI50 (NCI-H522): > 100 µM (inactive)
- GI50 (OVCAR-3): > 100 µM (inactive)
- GI50 (786-0): > 100 µM (inactive)
- GI50 (M19-MEL): > 100 µM (inactive)
- GI50 (SF-539): > 100 µM (inactive)
- GI50 (RPMI-8226): 23.7 µM (inactive)
- GI50 (SK-OV-3): 0.0131 µM (active)
- GI50 (DMS-273): > 100 µM (inactive)
- GI50 (SK-MEL-28): > 100 µM (inactive)
- GI50 (HCT-15): > 100 µM
- GI50 (HOP-62): > 100 µM (inactive)
- GI50 (K562): > 100 µM (inactive)
- GI50 (CCRF-CEM): 5.33 µM (inactive)
- GI50 (SF-268): > 100 µM (inactive)
- GI50 (HL-60): > 100 µM (inactive)
- GI50 (LOX IMVI): > 100 µM (inactive)
- GI50 (DLD-1): > 100 µM (inactive)
- GI50 (EKVX): > 100 µM (inactive)
- GI50 (UACC-257): > 100 µM (inactive)
- GI50 (NCI-H23): > 100 µM (inactive)
- GI50 (SF-295): > 100 µM (inactive)
- GI50 (KM-20L2): > 100 µM (inactive)
- GI50 (XF498): > 100 µM (inactive)
- GI50 (SNB-78): > 100 µM (inactive)
- GI50 (A549): > 100 µM (inactive)
- GI50 (HCT-116): > 100 µM (inactive)
- GI50 (CAKI-1): > 100 µM (inactive)
- GI50 (UACC-62): 80.4 µM (inactive)
- GI50 (OVCAR-5): 12.9 µM (inactive)
- GI50 (U-251): 60.4 µM (inactive)
- GI50 (SW-620): > 100 µM (inactive)
- GI50 (SK-MEL-5): > 100 µM (inactive)
- GI50 (KM12): > 100 µM (inactive)
- GI50 (SNB-75): 73.8 µM (inactive)
- GI50 (SK-MEL-2): > 100 µM (inactive)
- GI50 (IGROV-1): > 100 µM (inactive)
- GI50 (RXF 631): > 100 µM (inactive)
- GI50 (ACHN): > 100 µM (inactive)
- GI50 (DMS-114): > 100 µM (inactive)
- GI50 (SR): 96.4 µM (inactive)
- GI50 (M14): > 100 µM (inactive)
- GI50 (RXF 393): > 100 µM (inactive)
- GI50 (HOP-92): > 100 µM (inactive)
- GI50 (SNB-19): > 100 µM (inactive)
- GI50 (HCC 2998): > 100 µM (inactive)
- GI50 (TK-10): > 100 µM (inactive)
- GI50 (UO-31): 81.1 µM (inactive)
- GI50 (NCI-H226): 32.5 µM (inactive)
- GI50 (NCI-H460): > 100 µM (inactive)
- GI50 (COLO 205): > 100 µM (inactive)
- GI50 (HT-29): > 100 µM (inactive)
- GI50 (Malme-3M): > 100 µM (inactive)
- GI50 (OVCAR-4): > 100 µM (inactive)
